One test deals with KMS11. The test is described as follows: MTT cell viability assay, myeloma cell line. As to conditions: Homo sapiens, KMS-11, single agent, read-out: IC50. The class given is cell-based, human. The protocol:
(§1) Cell lines: Human myeloma cell lines (HMCLs) were derived from primary myeloma cells cultured in RPMI 1640 medium supplemented with 5% fetal calf serum from and 3 ng/mL recombinant IL-6 for IL-6 dependent cell lines. HMCLs are representative of phenotypic and genomic heterogeneity and the variability in patient's response to therapy.
(§2) MTT assay: Cell viability is measured using MTT (3-(4,5-dimethylthiazol-2-yl)-2,5-diphenyltetrazolium bromide) colorimetric survival assay. Cells are incubated with compounds in 96-well plates containing a final volume of 100 μl/well time. (2R)-2-{[(5Sa)-5-{3-chloro-2-methyl-4-[2-(4-methylpiperazin-1-yl)ethoxy]phenyl}-6-(5-fluorofuran-2-yl)thieno[2,3-d]pyrimidin-4-yl]oxy}-3-(2-{[1-(2,2,2-trifluoroethyl)-1H-pyrazol-5-yl]methoxy}phenyl)propanoic acid (Compound 2) is used at 9 different concentrations accordingly to single agent sensitivity. N-(4-hydroxyphenyl)-3-{6-[((3S)-3-(4-morpholinylmethyl)-3,4-dihydro-2(1H)-isoquinolinyl)carbonyl]-1,3-benzodioxol-5-yl}-N-phenyl-5,6,7,8-tetrahydro-1-indolizine carboxamide hydrochloride (Compound 1, HCl) is used at a fixed dose—1 μM. At the end of each treatment, cells are incubated with 1 mg/mL MTT (50 μl MTT solution 2.5 mg/ml for each well) at 37° C. for 3 hours allowing the MTT to be metabolized. Lysis buffer (100 μl Lysis buffer: DMF (2:3)/SDS (1:3)) is added into each well to dissolve formazan cristals and after 18 h of incubation, absorbance in viable cells is measured at 570 nm using a spectrophotometer.
(§3) The sensitivity of 27 human multiple myeloma cell lines to Compound 1, Compound 2 or to Compound 2 in the presence of 1 μM of Compound 1 was analyzed by using MTT cell viability assay. 50% inhibitory concentrations (IC50, in nM) were determined.
On the technique in general: Tetrazolium dyes change colour on reduction, which living cells bring about.

For another test, the system named is L363. The test is described as follows: MTT cell viability assay, myeloma cell line. The class given is cell-based, human. As to conditions: Homo sapiens, L-363, single agent, read-out: IC50. As to the method: as §1, §2, §3
For the next test, the system named is neuroblastoma cell lines. Briefly: CellTiterGlo viability, panel of neuroblastoma cell lines. The test is classed as cell-based. The settings on record: all neuroblastoma cell lines tested; single agent. As to the method:
In addition, all media contained penicillin (100 IU/ml), streptomycin (100 μg/ml) and L-glutamine (2 mM). Cell lines were cultured at 37° C. in a humidified atmosphere containing 5% CO2 and expanded in T-150 flasks. In all cases cells were thawed from frozen stocks, expanded through ≥1 passage using appropriate dilutions, counted and assessed for viability using a CASY cell counter prior to plating 150 ul/well at the densities indicated in Table 6 into 96-well plates. All cell lines were determined to be free of mycoplasma contamination in-house.
Stock solutions of compounds were prepared at a concentration of 5 mM in DMSO and stored at −20° C. […] Effects of the compounds on cell viability were assessed after 2 or 3 days of incubation (as indicated in Table 6) at 37° C./5% CO2 by quantification of cellular ATP levels using CellTiterGlo at 150 μL reagent/well. […] Luminescence was quantified on a multipurpose platereader. Single agent IC50s were calculated using standard four-parametric curve fitting. […]
Identical experiments were performed to assess potential synergistic interactions between compound combinations. Synergy Score were assessed using the Excess Inhibition 2D matrix according to the Loewe additivity model (Lehar et al, Nat Biotechnol. 2009 July; 27(7): 659-666). […]

A further test relates to primary AML blasts. Briefly: Cell viability (sytox blue, flow cytometry) of primary AML patient samples, LC50. The class given is cell-based, human. The settings on record: 54 primary AML samples; 48 h; RPMI/15% FCS; combination at 1:1. (A flow cytometer gives signals particle by particle.)
For test [1], the system named is Karpas 422 human B-cell non-Hodgkin's lymphoma xenografts. The test is described as follows: Lymphoma Karpas422 xenograft model in rats. The test is classed as in vivo. The settings on record: day 34; p<0.05; Compound 3 20 mg/kg iv QW; Compound 1 150 mg/kg po QW. As to the method: Karpas 422 human B-cell non-Hodgkin's lymphoma (NHL) cell line was established from the pleural effusion of a patient with chemotherapy-resistant NHL. The cells were obtained from the DSMZ cell bank and cultured in RPMI-1640 medium (BioConcept Ltd. Amimed,) supplemented with 10% FCS (BioConcept Ltd. Amimed), 2 mM L-glutamine (BioConcept Ltd. Amimed), 1 mM sodium pyruvate (BioConcept Ltd. Amimed) and 10 mM HEPES (Gibco) at 37° C. in an atmosphere of 5% CO2 in air. Cells were maintained between 0.5 and 1.5×10^6 cells/mL. […]
Tumour growth was monitored regularly post cell inoculation and animals were randomised into treatment groups (n=5) when tumour volume reached appropriate volume. During the treatment period tumour volume was measured about twice a week using calipers. Tumour size, in mm^3, was calculated from: (L×W2×π/6). […]
Tumour data were analyzed statistically using GraphPad Prism 7.00 (GraphPad Software). If the variances in the data were normally distributed, the data were analyzed using one-way ANOVA with post hoc Dunnett's test for comparison of treatment versus control group. […]
As a measure of efficacy the % T/C value is calculated at the end of the experiment according to: […]
Tumour regression was calculated according to: […]

Experimental for primary AML blasts: Primary AML patient samples: Bone marrow or peripheral blood samples from patients with AML were collected after informed consent in accordance with guidelines approved by The Alfred Hospital Human research ethics committees. Mononuclear cells were isolated by Ficoll-Paque (GE Healthcare, VIC, Aus) density-gradient centrifugation, followed by red cell depletion in ammonium chloride (NH4Cl) lysis buffer at 37° C. for 10 minutes. Cells were then re-suspended in phosphate-buffered saline containing 2% Fetal Bovine serum (Sigma, NSW, Aus). Mononuclear cells were then suspended in RPMI-1640 (GIBCO VIC, Aus) medium containing penicillin and streptomycin (GIBCO) and heat inactivated fetal bovine serum 15% (Sigma).
Cell Viability: Freshly purified mononuclear cells from AML patient samples were adjusted to a concentration of 2.5×10^5/ml and 100 μL of cells aliquoted per well into 96 well plates (Sigma). […] For combinations assays, drugs were added at a 1:1 ratio from 1 nM to 10 μM and incubated at 37° C. 5% CO2. Cells were then stained with sytox blue nucleic acid stain (Invitrogen, VIC, Aus) and fluorescence measured by flow cytometric analysis using the LSR-II Fortessa (Becton Dickinson, NSW, Aus). FACSDiva software was used for data collection, and FlowJo software for analysis. Blast cells were gated using forward and side scatter properties. […]

A word on the IC50: it is the midpoint of a concentration-inhibition curve. `Cl.O=C(c1cc(-c2cc3c(cc2C(=O)N2Cc4ccccc4C[C@H]2CN2CCOCC2)OCO3)n2c1CCCC2)N(c1ccccc1)c1ccc(O)cc1` [Compound 1, HCl, N-(4-hydroxyphenyl)-3-{6-[((3S)-3-(4-morpholinylmethyl)-3,4-dihydro-2(1H)-isoquinolinyl)carbonyl]-1,3-benzodioxol-5-yl}-N-phenyl-5,6,7,8-tetrahydro-1-indolizine carboxamide hydrochloride]: the IC50 in the test with KMS11 was 10.5 µM; in the test with L363, 7.58 µM; in the test with neuroblastoma cell lines it was greater than 1 µM.

As for `O=C(c1cc(-c2cc3c(cc2C(=O)N2Cc4ccccc4C[C@H]2CN2CCOCC2)OCO3)n2c1CCCC2)N(c1ccccc1)c1ccc(O)cc1` [Compound 1, N-(4-hydroxyphenyl)-3-{6-[((3S)-3-(4-morpholinylmethyl)-3,4-dihydro-2(1H)-isoquinolinyl)carbonyl]-1,3-benzodioxol-5-yl}-N-phenyl-5,6,7,8-tetrahydro-1-indolizine carboxamide], in the test on primary AML blasts, the “proportion of primary AML samples highly sensitive (LC50<10 nM)” value was “Approximately 20%”.

For the compound `COc1ccccc1-c1nccc(COc2ccccc2C[C@@H](Oc2ncnc3sc(-c4ccc(F)cc4)c(-c4ccc(OCCN5CCN(C)CC5)c(Cl)c4C)c23)C(=O)O)n1` [Compound 3, (2R)-2-{[(5Sa)-5-{3-chloro-2-methyl-4-[2-(4-methylpiperazin-1-yl)ethoxy]phenyl}-6-(4-fluorophenyl)thieno[2,3-d]pyrimidin-4-yl]oxy}-3-(2-{[2-(2-methoxyphenyl)pyrimidin-4-yl]methoxy}phenyl)propanoic acid], the “tumour response versus vehicle group” value in test [1] was “significantly different from the vehicle group”.

The values above are taken from patent publication US20190240225A1, “COMBINATION OF A BCL-2 INHIBITOR AND A MCL-1 INHIBITOR, USES AND PHARMACEUTICAL COMPOSITIONS THEREOF” (LES LABORATOIRES SERVIER, priority 2016, published 2019).
